Source: the NIST ThermoML archive (doi:10.1016/j.jct.2011.12.024)

Columns and labels:
[1] = 101.33 kPa, Liquid, Vibrating tube method
[2] = refractive index (other wavelength) (dimensionless); details: 101.33 kPa, Liquid, Wavelength=632.8 nm, Standard Abbe refractometry
[3] = refractive index (other wavelength) (dimensionless); xn = mol fraction of the nth substance listed; details: 101.33 kPa, Liquid, Wavelength=632.8 nm, Standard Abbe refractometry

COC(=O)CCCCC(=O)OC [dimethyl 1,6-hexanedioate]
Details | mass density [kg/m3] | refractive index
[1], 281.15 K | 1073.09 | –
[1], 282.15 K | 1072.12 | –
[1], 283.15 K | 1071.14 | –
[1], 284.15 K | 1070.17 | –
[1], 285.15 K | 1069.19 | –
[1], 286.15 K | 1068.21 | –
[1], 287.15 K | 1067.24 | –
[1], 288.15 K | 1066.26 | –
[1], 289.15 K | 1065.29 | –
[1], 290.15 K | 1064.32 | –
[1], 291.15 K | 1063.34 | –
[1], 292.15 K | 1062.37 | –
[1], 293.15 K | 1061.39 | –
[1], 294.15 K | 1060.42 | –
[1], 295.15 K | 1059.45 | –
[1], 296.15 K | 1058.47 | –
[1], 297.15 K | 1057.5 | –
[1], 298.15 K | 1056.52 | –
[1], 299.15 K | 1055.55 | –
[1], 300.15 K | 1054.58 | –
[1], 301.15 K | 1053.6 | –
[1], 302.15 K | 1052.63 | –
[1], 303.15 K | 1051.65 | –
[1], 304.15 K | 1050.68 | –
[1], 305.15 K | 1049.7 | –
[1], 306.15 K | 1048.73 | –
[1], 307.15 K | 1047.75 | –
[1], 308.15 K | 1046.78 | –
[2], 283.48 K | – | 1.4312
[2], 284.37 K | – | 1.4309
[2], 285.28 K | – | 1.4305
[2], 286.1 K | – | 1.4302
[2], 286.92 K | – | 1.4298
[2], 287.65 K | – | 1.4296
[2], 288.49 K | – | 1.4292

COC(=O)CCCCC(=O)OC [dimethyl 1,6-hexanedioate] + CCCCCC
[3], 289.28 K
Details | refractive index
x1 = 0.101 | 1.3821
x1 = 0.202 | 1.3884
x1 = 0.301 | 1.3944
x1 = 0.394 | 1.3998
x1 = 0.5 | 1.4056
x1 = 0.599 | 1.4107
x1 = 0.706 | 1.416
x1 = 0.799 | 1.4203
x1 = 0.882 | 1.4239

CCCCCCC [heptane] + COC(=O)CCCCC(=O)OC
[3], x2 = 0
Details | refractive index
289.62 K | 1.3883
290.68 K | 1.3878
291.71 K | 1.3873
292.7 K | 1.3868
293.74 K | 1.3863
294.71 K | 1.3858
295.77 K | 1.3853

CCCCCC [hexane]
[2]
Details | refractive index
283.72 K | 1.3789
284.52 K | 1.3785
285.35 K | 1.3781
286.21 K | 1.3776
287.1 K | 1.3771
287.94 K | 1.3767
288.71 K | 1.3762
